Reference: US8188085B2, “Antifungal agents” (Merck Sharp & Dohme Corp., priority 2008, dated 2012)
Counter-ions that a name gives are not always drawn.

The compounds below were run against glucan synthase (GS) prepared from Candida albicans MY1055 (Candida albicans, UniProt O13428) (assay: Glucan synthase inhibition (polymerization assay, 96-well)). Conditions: not given.
Format: biochemical
How it was run: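 Partially purified glucan synthase from C. albicans MY1055 membranes incorporated 0.5 mM ³H-UDPG with 25 μM GTP-γ-S, HEPES pH 7.5, over 60 min at 22 °C. TCA-precipitated glucan was counted by scintillation. IC50 (ng/mL) came from sigmoidal fits of duplicate 3-fold dilution series.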

glucan synthase (GS) prepared from Candida albicans MY1055, sequence (O13428 1-1897): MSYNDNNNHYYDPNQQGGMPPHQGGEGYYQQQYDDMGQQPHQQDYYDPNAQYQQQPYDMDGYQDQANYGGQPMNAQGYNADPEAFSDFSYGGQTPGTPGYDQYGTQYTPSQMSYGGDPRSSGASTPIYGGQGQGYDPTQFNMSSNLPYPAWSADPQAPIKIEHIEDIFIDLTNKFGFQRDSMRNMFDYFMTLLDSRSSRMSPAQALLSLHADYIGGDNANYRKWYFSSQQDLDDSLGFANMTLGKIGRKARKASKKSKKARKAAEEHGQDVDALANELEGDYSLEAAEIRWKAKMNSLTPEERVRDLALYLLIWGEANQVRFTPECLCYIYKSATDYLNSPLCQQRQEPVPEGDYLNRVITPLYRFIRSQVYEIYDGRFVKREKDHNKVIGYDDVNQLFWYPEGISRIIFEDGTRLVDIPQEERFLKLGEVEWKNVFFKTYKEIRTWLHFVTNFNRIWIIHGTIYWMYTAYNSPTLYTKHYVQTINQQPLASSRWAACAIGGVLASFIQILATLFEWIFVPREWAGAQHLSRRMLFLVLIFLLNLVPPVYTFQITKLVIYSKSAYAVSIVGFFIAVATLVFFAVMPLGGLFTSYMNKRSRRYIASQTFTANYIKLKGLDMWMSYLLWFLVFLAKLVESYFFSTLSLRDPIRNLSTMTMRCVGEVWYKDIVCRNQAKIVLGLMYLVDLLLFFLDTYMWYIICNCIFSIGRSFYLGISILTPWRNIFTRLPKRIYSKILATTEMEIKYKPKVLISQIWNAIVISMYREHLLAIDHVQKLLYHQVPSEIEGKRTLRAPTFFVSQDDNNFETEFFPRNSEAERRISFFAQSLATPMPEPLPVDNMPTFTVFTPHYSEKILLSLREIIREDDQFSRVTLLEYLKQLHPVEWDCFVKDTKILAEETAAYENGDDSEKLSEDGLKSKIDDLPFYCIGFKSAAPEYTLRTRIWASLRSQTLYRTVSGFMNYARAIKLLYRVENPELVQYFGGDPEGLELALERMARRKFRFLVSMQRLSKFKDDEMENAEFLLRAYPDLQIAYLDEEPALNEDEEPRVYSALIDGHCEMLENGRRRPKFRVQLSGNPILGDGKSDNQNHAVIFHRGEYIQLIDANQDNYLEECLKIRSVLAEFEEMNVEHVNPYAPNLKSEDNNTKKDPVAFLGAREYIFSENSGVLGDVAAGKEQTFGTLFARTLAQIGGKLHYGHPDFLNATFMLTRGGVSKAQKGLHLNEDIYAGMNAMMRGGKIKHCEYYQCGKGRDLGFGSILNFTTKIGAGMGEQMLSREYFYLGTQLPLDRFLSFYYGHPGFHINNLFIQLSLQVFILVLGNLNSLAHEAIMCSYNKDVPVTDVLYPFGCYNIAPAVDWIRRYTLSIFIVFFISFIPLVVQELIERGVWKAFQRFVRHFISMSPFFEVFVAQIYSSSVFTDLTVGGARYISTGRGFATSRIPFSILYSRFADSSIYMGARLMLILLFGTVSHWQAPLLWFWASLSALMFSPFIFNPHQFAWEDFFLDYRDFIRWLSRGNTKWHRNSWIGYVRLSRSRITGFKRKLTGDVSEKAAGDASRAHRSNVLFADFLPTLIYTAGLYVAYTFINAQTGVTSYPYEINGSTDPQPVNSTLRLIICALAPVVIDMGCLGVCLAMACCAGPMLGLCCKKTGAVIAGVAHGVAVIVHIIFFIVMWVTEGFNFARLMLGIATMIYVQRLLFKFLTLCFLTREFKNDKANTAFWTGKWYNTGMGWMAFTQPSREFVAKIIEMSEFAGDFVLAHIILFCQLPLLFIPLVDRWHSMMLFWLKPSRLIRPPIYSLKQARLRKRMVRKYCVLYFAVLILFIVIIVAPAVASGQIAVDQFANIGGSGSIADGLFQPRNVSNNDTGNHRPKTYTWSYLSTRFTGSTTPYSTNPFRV

| SMILES | IC50 [nM] |
| --- | --- |
| CC(C)[C@@H](C)[C@@]1(C)CC[C@]2(C)[C@H]3CC[C@@H]4[C@@]5(COC[C@@]4(C)[C@@H](OC[C@](C)(N)C(C)(C)C)[C@H](n4ncnc4-c4ccc[n+](C)c4)C5)C3=CC[C@@]2(C)[C@@H]1C(=O)O [Example 264, (1S,4aR,6aS,7R,8R,10aR,10bR,12aR,14R,15R)-15-[[(2R)-2-amino-2,3,3-trimethylbutyl]oxy]-8-[(1R)-1,2-dimethylpropyl]-14-[5-(1-methyl-3-pyridiniumyl)-1H-1,2,4-triazol-1-yl]-1,6,6a,7,8,9,10,10a,10b,11,12,12a-dodecahydro-1,6a,8,10a-tetramethyl-4H-1,4a-propano-2H-phenanthro[1,2-c]pyran-7-carboxylic acid trifluoroacetate] | 0.403 |

Same assay, conditions: GS from C. albicans MY1055; 60 min incubation at 22° C.; read-out: Candida Albicans GS IC50 (converted)

| IC50 [nM] | SMILES |
| --- | --- |
| 0.376 | CC(C)[C@@H](C)[C@@]1(C)CC[C@]2(C)[C@H]3CC[C@@H]4[C@@]5(COC[C@@]4(C)[C@@H](OC[C@](C)(N)C(C)(C)C)[C@H](n4ncnc4-c4ccc(C6=NCCN6)cc4)C5)C3=CC[C@@]2(C)[C@@H]1C(=O)O [Example 268, (1S,4aR,6aS,7R,8R,8R,10aR,10bR,12aR,14R,15R)-15-[[(2R)-2-amino-2,3,3-trimethylbutyl]oxy]-14-[5-[4-(4,5-dihydro-1H-imidazol-2-yl)phenyl]-1H-1,2,4-triazol-1-yl]-8-[(1R)-1,2-dimethylpropyl]-1,6,6a,7,8,9,10,10a,10b,11,12,12a-dodecahydro-1,6a,8,10a-tetramethyl-4H-1,4a-propano-2H-phenanthro[1,2-c]pyran-7-carboxylic acid] |
| 10.1 | CC(C)[C@@H](C)[C@@]1(C)CC[C@]2(C)[C@H]3CC[C@@H]4[C@@]5(COC[C@@]4(C)[C@@H](OC[C@](C)(N)C(C)C)[C@H](n4ncnc4-c4ccnc(-c6cccnc6)c4)C5)C3=CC[C@@]2(C)[C@@H]1C(=O)O [Example 272, (1S,4aR,6aS,7R,8R,10aR,10bR,12aR,14R,15R)-15-[[(2R)-2-amino-2,3-dimethylbutyl]oxy]-14-(5-[2,3′-bipyridin]-4-yl-1H-1,2,4-triazol-1-yl)-8-[(1R)-1,2-dimethylpropyl]-1,6,6a,7,8,9,10,10a,10b,11,12,12a-dodecahydro-1,6a,8,10a-tetramethyl-4H-1,4a-propano-2H-phenanthro[1,2-c]pyran-7-carboxylic acid] |
| 2.52 | COC(=O)N1CCC(c2ncnn2[C@@H]2C[C@@]34COC[C@](C)([C@@H]3CC[C@H]3C4=CC[C@@]4(C)[C@H](C(=O)O)[C@@](C)([C@H](C)C(C)C)CC[C@]34C)[C@H]2OC[C@](C)(N)C(C)(C)C)CC1 [Example 276, (1S,4aR,6aS,7R,8R,10aR,10bR,12aR,14R,1SR)-15-[[(2R)-2-amino-2,3,3-trimethylbutyl]oxy]-8-[(1R)-1,2-dimethylpropyl]-14-[5-[1-(methoxycarbonyl)-4-piperidinyl]-1H-1,2,4-triazol-1-yl]-1,6,6a,7,8,9,10,10a,10b,11,12,12a-dodecahydro-1,6a,8,10a-tetramethyl-4H-1,4a-propano-2H-phenanthro[1,2-c]pyran-7-carboxylic acid] |
| 4.07 | CC(C)[C@@H](C)[C@@]1(C)CC[C@]2(C)[C@H]3CC[C@@H]4[C@@]5(COC[C@@]4(C)[C@@H](OC[C@](C)(N)C(C)(C)C)[C@H](n4ncnc4C4CCOCC4)C5)C3=CC[C@@]2(C)[C@@H]1C(=O)O [Example 285, (1S,4aR,6aS,7R,8R,10aR,10bR,12aR,14R,15R)-15-[[(2R)-2-amino-2,3,3-trimethylbutyl]oxy]-8-[(1R)-1,2-dimethylpropyl]-14-[5-(tetrahydro-2H-pyran-4-yl)-1H-1,2,4-triazol-1-yl]-1,6,6a,7,8,9,10,10a,10b,11,12,12a-dodecahydro-1,6a,8,10a-tetramethyl-4H-1,4a-propano-2H-phenanthro[1,2-c]pyran-7-carboxylic acid] |
| 54.9 | CC(C)[C@@H](C)[C@@]1(C)CC[C@]2(C)[C@H]3CC[C@@H]4[C@@]5(COC[C@@]4(C)[C@@H](OC[C@](C)(N)C(C)C)[C@H](n4cccn4)C5)C3=CC[C@@]2(C)[C@@H]1C(=O)O [Example 291, (1S,4aR,6aS,7R,8R,10aR,10bR,12aR,14R,15R)-15-[[(2R)-2-amino-2,3-dimethylbutyl]oxy]-8-[(1R)-1,2-dimethylpropyl]-14-(1H-pyrazol-1-yl)-1,6,6a,7,8,9,10,10a,10b,11,12,12a-dodecahydro-1,6a,8,10a-tetramethyl-4H-1,4a-propano-2H-phenanthro[1,2-c]pyran-7-carboxylic acid] |
| 61 | CC(C)[C@@H](C)[C@@]1(C)CC[C@]2(C)[C@H]3CC[C@@H]4[C@@]5(COC[C@@]4(C)[C@@H](OC[C@](C)(N)C(C)C)[C@H](n4cc(Cl)cn4)C5)C3=CC[C@@]2(C)[C@@H]1C(=O)O [Example 295, (1S,4aR,6aS,7R,8R,10aR,10bR,12aR,14R,15R)-15-[[(2R)-2-amino-2,3-dimethylbutyl]oxy]-14-(4-chloro-1H-pyrazol-1-yl)-8-[(1R)-1,2-dimethylpropyl]-1,6,6a,7,8,9,10,10a,10b,11,12,12a-dodecahydro-1,6a,8,10a-tetramethyl-4H-1,4a-propano-2H-phenanthro[1,2-c]pyran-7-carboxylic acid] |
| 38.1 | CCNC(=O)c1ccnn1[C@@H]1C[C@@]23COC[C@](C)([C@@H]2CC[C@H]2C3=CC[C@@]3(C)[C@H](C(=O)O)[C@@](C)([C@H](C)C(C)C)CC[C@]23C)[C@H]1OC[C@](C)(N)C(C)C [Example 298, (1S,4aR,6aS,7R,8R,10aR,10bR,12aR,14R,15R)-15-[[(2R)-2-amino-2,3-dimethylbutyl]oxy]-8-[(1R)-1,2-dimethylpropyl]-14-[5-[(ethylamino)carbonyl]-1H-pyrazol-1-yl]-1,6,6a,7,8,9,10,10a,10b,11,12,12a-dodecahydro-1,6a,8,10a-tetramethyl-4H-1,4a-propano-2H-phenanthro[1,2-c]pyran-7-carboxylic acid] |
| 675 | CCOC(=O)c1nccn1[C@@H]1C[C@@]23COC[C@](C)([C@@H]2CC[C@H]2C3=CC[C@@]3(C)[C@H](C(=O)O)[C@@](C)([C@H](C)C(C)C)CC[C@]23C)[C@H]1OC[C@](C)(N)C(C)C [Example 300, (1S,4aR,6aS,7R,8R,10aR,10bR,12aR,14R,15R)-15-[[(2R)-2-amino-2,3-dimethylbutyl]oxy]-8-[(1R)-1,2-dimethylpropyl]-14-[2-(ethoxycarbonyl)-1H-imidazol-1-yl]-1,6,6a,7,8,9,10,10a,10b,11,12,12a-dodecahydro-1,6a,8,10a-tetramethyl-4H-1,4a-propano-2H-phenanthro[1,2-c]pyran-7-carboxylic acid] |
| 5.6 | CC(C)[C@@H](C)[C@@]1(C)CC[C@]2(C)[C@H]3CC[C@@H]4[C@@]5(COC[C@@]4(C)[C@@H](OC[C@@]4(C)CCCN4)[C@H](n4ncnc4-c4ccncc4)C5)C3=CC[C@@]2(C)[C@@H]1C(=O)O [Example 307, (1S,4aR,6aS,7R,8R,10aR,10bR,12aR,14R,15R)-8-[(1R)-1,2-dimethylpropyl]-15-[[(2R)-2-methyl-2-pyrrolidinyl]methoxy]-14-[5-(4-pyridinyl)-1H-1,2,4-triazol-1-yl]-1,6,6a,7,8,9,10,10a,10b,11,12,12a-dodecahydro-1,6a,8,10a-tetramethyl-4H-1,4a-propano-2H-phenanthro[1,2-c]pyran-7-carboxylic acid] |
| 17.8 | CN[C@@](C)(CO[C@H]1[C@H](n2nccc2-c2ccncc2)C[C@@]23COC[C@]1(C)[C@@H]2CC[C@H]1C3=CC[C@@]2(C)[C@H](C(=O)O)[C@@](C)([C@H](C)C(C)C)CC[C@]12C)C(C)C [Example 312, (1S,4aR,6aS,7R,8R,10aR,10bR,12aR,14R,15R)-15-[[(2R)-2,3-dimethyl-2-(methylamino)butyl]oxy]-8-[(1R)-1,2-dimethylpropyl]-14-[5-(4-pyridinyl)-1H-pyrazol-1-yl]-1,6,6a,7,8,9,10,10a,10b,11,12,12a-dodecahydro-1,6a,8,10a-tetramethyl-4H-1,4a-propano-2H-phenanthro[1,2-c]pyran-7-carboxylic acid] |
